Assay type in all cases: cell-based
Assay [1] deals with T1, AmRDL (Apis mellifera, UniProt A0A168SJP2).
T1 construct: homomeric
T1 sequence (A0A168SJP2 19-477): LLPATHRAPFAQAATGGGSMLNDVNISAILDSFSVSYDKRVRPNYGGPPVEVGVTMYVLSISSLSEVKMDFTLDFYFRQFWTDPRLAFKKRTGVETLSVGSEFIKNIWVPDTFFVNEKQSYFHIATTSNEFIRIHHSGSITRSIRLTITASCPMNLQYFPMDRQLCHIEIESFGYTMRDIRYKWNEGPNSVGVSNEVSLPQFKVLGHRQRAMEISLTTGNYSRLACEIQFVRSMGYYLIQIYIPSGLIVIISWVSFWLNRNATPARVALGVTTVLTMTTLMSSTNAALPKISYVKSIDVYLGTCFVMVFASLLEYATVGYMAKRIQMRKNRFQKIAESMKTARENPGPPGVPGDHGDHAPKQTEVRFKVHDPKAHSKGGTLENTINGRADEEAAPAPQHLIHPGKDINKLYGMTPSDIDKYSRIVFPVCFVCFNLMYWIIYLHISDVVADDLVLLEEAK
The assay is described as follows: two-electrode voltage clamp, GABA-induced current in Xenopus oocytes.

Assay [2] deals with T2, LsRDL (Laodelphax striatellus, UniProt Q0ECT5).
T2 construct: homomeric
T2 sequence (Q0ECT5 23-487): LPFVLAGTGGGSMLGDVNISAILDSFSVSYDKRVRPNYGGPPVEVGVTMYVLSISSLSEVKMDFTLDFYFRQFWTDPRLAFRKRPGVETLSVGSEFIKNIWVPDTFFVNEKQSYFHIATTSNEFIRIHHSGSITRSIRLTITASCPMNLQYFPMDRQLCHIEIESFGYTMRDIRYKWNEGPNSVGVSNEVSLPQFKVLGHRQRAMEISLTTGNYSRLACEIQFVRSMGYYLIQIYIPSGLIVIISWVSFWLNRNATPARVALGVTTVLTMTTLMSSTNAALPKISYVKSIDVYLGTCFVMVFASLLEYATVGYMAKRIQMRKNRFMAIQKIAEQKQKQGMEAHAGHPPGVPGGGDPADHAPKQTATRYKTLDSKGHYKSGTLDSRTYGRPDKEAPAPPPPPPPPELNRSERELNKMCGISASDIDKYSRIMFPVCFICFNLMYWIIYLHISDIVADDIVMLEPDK
The assay is described as above.

Assay [3] concerns the target T3, TuRDL (Tetranychus urticae, UniProt E3WEB3).
T3 construct: gene Rdl; homomeric
T3 sequence (E3WEB3 18-827): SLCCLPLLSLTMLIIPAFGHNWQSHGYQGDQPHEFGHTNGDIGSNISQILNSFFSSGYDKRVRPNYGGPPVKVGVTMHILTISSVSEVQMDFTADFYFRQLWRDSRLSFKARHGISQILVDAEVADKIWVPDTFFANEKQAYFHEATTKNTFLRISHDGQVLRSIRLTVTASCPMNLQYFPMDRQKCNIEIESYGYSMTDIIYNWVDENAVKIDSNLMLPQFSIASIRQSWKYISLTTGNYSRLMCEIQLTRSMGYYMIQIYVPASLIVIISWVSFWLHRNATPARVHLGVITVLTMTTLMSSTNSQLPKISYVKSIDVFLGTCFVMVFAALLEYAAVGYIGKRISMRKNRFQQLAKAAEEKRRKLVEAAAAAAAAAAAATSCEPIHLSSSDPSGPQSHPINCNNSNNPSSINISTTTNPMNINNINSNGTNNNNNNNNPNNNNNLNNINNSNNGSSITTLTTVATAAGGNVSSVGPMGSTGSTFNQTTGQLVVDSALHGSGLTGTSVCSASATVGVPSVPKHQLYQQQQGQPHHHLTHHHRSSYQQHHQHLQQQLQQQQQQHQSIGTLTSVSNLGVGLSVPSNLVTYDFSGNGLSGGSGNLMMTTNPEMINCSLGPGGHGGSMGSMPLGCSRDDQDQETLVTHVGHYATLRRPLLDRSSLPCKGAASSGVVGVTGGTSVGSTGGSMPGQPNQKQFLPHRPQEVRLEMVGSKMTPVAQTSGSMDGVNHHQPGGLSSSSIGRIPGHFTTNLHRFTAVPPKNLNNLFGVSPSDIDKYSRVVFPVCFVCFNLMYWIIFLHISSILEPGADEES
The description is as above.

Assay [4] addresses T4, CsRDL (Chilo suppressalis, UniProt E2IKR3).
T4 construct: homomeric channel
T4 sequence (E2IKR3 27-496): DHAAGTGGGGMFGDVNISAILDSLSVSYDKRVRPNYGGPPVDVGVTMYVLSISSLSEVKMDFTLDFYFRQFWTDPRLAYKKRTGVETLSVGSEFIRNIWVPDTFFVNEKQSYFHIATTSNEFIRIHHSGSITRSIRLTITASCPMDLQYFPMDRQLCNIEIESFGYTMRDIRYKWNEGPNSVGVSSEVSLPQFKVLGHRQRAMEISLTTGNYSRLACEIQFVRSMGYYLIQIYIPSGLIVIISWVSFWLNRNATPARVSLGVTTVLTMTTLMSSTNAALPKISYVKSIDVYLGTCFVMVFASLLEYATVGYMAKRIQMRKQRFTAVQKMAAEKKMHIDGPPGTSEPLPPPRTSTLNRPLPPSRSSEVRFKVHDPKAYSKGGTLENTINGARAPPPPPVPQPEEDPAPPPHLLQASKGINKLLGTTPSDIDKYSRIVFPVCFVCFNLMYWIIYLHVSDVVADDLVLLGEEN
The assay is described as above.

Assay [5] concerns the target T4, CsRDL. In words: two-electrode voltage clamp, inhibition of GABA-induced current in Xenopus oocytes. In general terms: In two-electrode clamp one electrode senses voltage and the other passes current.
Assay [6] deals with T1, AmRDL. Described as above.
Assay [7] addresses T2, LsRDL. The description is as above.
The target in assay [8] is T3, TuRDL. The assay is described as above.
For assay [9], the target named is T5, DmRDL (Drosophila melanogaster, UniProt P25123).
T5 construct: gene Rdl; homomeric
T5 sequence (P25123 45-606): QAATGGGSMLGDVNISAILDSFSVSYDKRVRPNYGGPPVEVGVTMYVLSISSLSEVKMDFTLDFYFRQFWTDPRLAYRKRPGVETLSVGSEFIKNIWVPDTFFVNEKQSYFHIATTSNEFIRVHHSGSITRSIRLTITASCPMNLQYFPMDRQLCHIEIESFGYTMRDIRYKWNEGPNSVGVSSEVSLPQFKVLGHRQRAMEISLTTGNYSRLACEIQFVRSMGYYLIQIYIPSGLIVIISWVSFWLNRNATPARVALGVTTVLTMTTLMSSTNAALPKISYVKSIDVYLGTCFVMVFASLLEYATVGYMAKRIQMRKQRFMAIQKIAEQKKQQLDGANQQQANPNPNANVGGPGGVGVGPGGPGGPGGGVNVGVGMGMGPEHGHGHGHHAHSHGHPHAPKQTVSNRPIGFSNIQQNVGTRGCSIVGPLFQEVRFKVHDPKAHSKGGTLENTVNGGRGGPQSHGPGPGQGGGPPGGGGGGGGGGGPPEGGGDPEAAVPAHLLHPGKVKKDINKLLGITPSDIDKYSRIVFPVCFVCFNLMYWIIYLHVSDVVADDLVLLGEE
The assay is described as above.

Assay [10] deals with T6, DmRDL (Drosophila melanogaster, UniProt P25123, G335M).
T6 construct: gene Rdl; homomeric
T6 sequence (P25123 45-606 G335M): T5 sequence (P25123 45-606) with G291M
The assay is described as above.

Residue numbers refer to the chain shown, from its start.

`NCCCC(=O)O` [GABA]: the EC50 (as a rule, the concentration needed to bring the measured effect to its halfway point) is 13400 nM in assay [1], 31900 nM in [2], 295000 nM in [3] and 18100 nM in [4].
`N#Cc1nn(-c2c(Cl)cc(C(F)(F)F)cc2Cl)c(N)c1[S+]([O-])C(F)(F)F` (centres unmarked) [fipronil]: the IC50 (as a rule, the concentration that gives 50% inhibition) in assay [5] came out at 10 nM. That is a double-digit nanomolar value.
`Cc1cc(C2=NOC(c3cc(Cl)cc(Cl)c3)(C(F)(F)F)C2)ccc1C(=O)NCC(=O)NCC(F)(F)F` (centres unmarked) [fluralaner]: the IC50 in assay [6] is 9.38 nM; in assay [5], 4.2 nM; in assay [7] it was 3.27 nM; in assay [8], 2.53 nM; in assay [9] it was 6.96 nM; in assay [10], over 10000 nM.
